From ChEMBL document CHEMBL5661943, “ASAP - In vitro antiviral effect” (2024)

How the values were obtained:
Zika virus = assay: Functional CPE-based assay to measure dose dependent changes in antiviral-drug inhibitory efficacy against Zika virus MR766 in Vero E6 miRFP670 cells (cotreated with P-gp inhibitor, CP100356). Cells are treated with antiviral candidates that are serially diluted. EC50 is reported via analysis of MTS assay as a readout of CPE. The assay has been performed by KU Leuven.; type: organism-based, Chlorocebus sabaeus, Vero C1008; settings: for EC90: P-gp concentration 500 nM, P-gp inhibitor CP100356
dengue virus type 2 = assay: Functional assay to measure dose dependent changes in antiviral-drug inhibitory efficacy against Dengue virus type 2 New Guinea C in Vero E6 miRFP670 cells (cotreated with P-gp inhibitor, CP100356). Cells are treated with antiviral candidates that are serially diluted, following infection, cells are fixed. EC50 is reported via analysis of fluorescence intensity using high-content imager. The …; type: organism-based, Chlorocebus sabaeus, Vero C1008; settings: for EC90: P-gp concentration 500 nM, P-gp inhibitor CP100356

CC(C)CNC(=O)[C@H](Nc1ccc2c(c1)CNC2)c1cc(Cl)cc2[nH]ncc12 was tested, and the EC50 (Zika virus; Zika virus, Vero C1008) was 14.2 µM, the EC90 (Zika virus; Zika virus, Vero C1008, Baseline response 0 %, EC90 CI (lower) 23.751 uM, EC90 CI (upper) 85.548 uM, Hill slope 1.9, Maximum measured 81.211 %, Maximum response 100 %, Minimum measured -3.072 %, R squared 0.886) was 45.1 µM and the EC50 (dengue virus type 2; Dengue virus, Vero C1008) was > 50 µM. For the same molecule, the EC90 (dengue virus type 2; Dengue virus, Vero C1008, Maximum measured 133.558 %, Minimum measured 96.187 %) was > 50 µM.
With O=C(Nc1ccc2c(c1)CNC2)c1cc(F)cc2[nH]c(-c3cnc(C4CC4)o3)nc12 the EC90 (Zika virus; Baseline response 0 %, Hill slope 1.364, Maximum measured 18.791 %, Maximum response 100 %, Minimum measured -1.808 %, R squared 0.107) was > 50 µM, the EC50 (Zika virus; Zika virus, Vero C1008) was > 50 µM and the EC90 (Zika virus; Zika virus, Vero C1008, Baseline response 0 %, Hill slope 2.704, Maximum measured 11.553 %, Maximum response 100 %, Minimum measured -5.923 %, R squared 0.137) was > 50 µM. The EC90 (dengue virus type 2; Baseline response 0 %, EC90 CI (lower) 0.872 uM, EC90 CI (upper) 3.596 uM, Hill slope -8.389, Maximum measured 102.302 %, Maximum response 100 %, Minimum measured 7.049 %, R squared 0.894) was 2.99 µM, the EC50 (dengue virus type 2; Dengue virus, Vero C1008) was 2.33 µM and the EC90 (dengue virus type 2; Dengue virus, Vero C1008, Baseline response 0 %, EC90 CI (lower) 0.484 uM, EC90 CI (upper) 7.419 uM, Hill slope -10.584, Maximum measured 98.644 %, Maximum response 100 %, Minimum measured 4.286 %, R squared 0.843) was 2.87 µM. For the same molecule, the EC50 (dengue virus type 2; vero c1008) was 2.3 µM.
With O=C(Nc1ccc2c(c1)CNC2)c1ccc2c(C3=CCNCC3)csc2c1 the EC50 (Zika virus; Zika virus, Vero C1008) was 9.31 µM, the EC90 (Zika virus; Zika virus, Vero C1008, Baseline response 0 %, Hill slope 1.989, Maximum measured 64.405 %, Maximum response 100 %, Minimum measured 3.372 %, R squared 0.951) was > 12.5 µM and the EC50 (dengue virus type 2; Dengue virus, Vero C1008) was 1.33 µM. The EC90 (dengue virus type 2; Dengue virus, Vero C1008, Baseline response 0 %, Hill slope -1.321, Maximum measured 86.909 %, Maximum response 100 %, Minimum measured 20.548 %, R squared 0.914) was > 6.25 µM.
With O=C(Nc1cc2c(c(C3=CC[C@H](O)CC3)c1)CNC2)c1cc(Cl)cc2[nH]ncc12 the EC50 (Zika virus; Zika virus, Vero C1008) was 46.6 µM, the EC90 (Zika virus; Zika virus, Vero C1008, Baseline response 0 %, Hill slope 3.698, Maximum measured 56.446 %, Maximum response 100 %, Minimum measured 0.896 %, R squared 0.945) was > 50 µM and the EC50 (dengue virus type 2; Dengue virus, Vero C1008) was > 50 µM. The EC90 (dengue virus type 2; Dengue virus, Vero C1008, Maximum measured 128.94 %, Minimum measured 80.48 %) was > 50 µM.
Work on O=C(Nc1ccc2c(c1)CN[C@H]2CC1CC1)c1cc(F)cc2[nH]ncc12 yielded an EC50 (Zika virus; Zika virus, Vero C1008) of 1.64 µM, an EC90 (Zika virus; Zika virus, Vero C1008, Baseline response 0 %, Hill slope 24.148, Maximum measured 124.993 %, Maximum response 100 %, Minimum measured 2.983 %, R squared 0.936) of 1.79 µM and an EC50 (dengue virus type 2; Dengue virus, Vero C1008) of 1.03 µM.
In the case of CN(c1ccc2c(c1)CNC2)[C@H](C(=O)NCC(F)F)c1cc(Cl)cc(C2CC2)c1, the EC50 (Zika virus; Zika virus, Vero C1008) is reported as 0.859 µM, the EC90 (Zika virus; Zika virus, Vero C1008, Baseline response 0 %, EC90 CI (lower) 0.179 uM, EC90 CI (upper) 7.248 uM, Hill slope 7.833, Maximum measured 121.708 %, Maximum response 100 %, Minimum measured 8.623 %, R squared 0.915) is reported as 1.14 µM and the EC50 (dengue virus type 2; Dengue virus, Vero C1008) is reported as > 3.12 µM. The EC90 (dengue virus type 2; Dengue virus, Vero C1008, Baseline response 0 %, Hill slope -0.632, Maximum measured 86.584 %, Maximum response 100 %, Minimum measured 48.476 %, R squared 0.311) was > 3.12 µM.
In the case of O=C(Nc1ccc2c(c1)CNC2)c1cc(F)cc2[nH]c(-c3ccc(F)cc3)nc12, the EC50 (Zika virus; Zika virus, Vero C1008) is reported as > 50 µM, the EC90 (Zika virus; Zika virus, Vero C1008, Baseline response 0 %, Hill slope 2.324, Maximum measured 27.659 %, Maximum response 100 %, Minimum measured -7.999 %, R squared 0.219) is reported as > 50 µM and the EC50 (dengue virus type 2; Dengue virus, Vero C1008) is reported as > 50 µM. The EC90 (dengue virus type 2; Dengue virus, Vero C1008, Maximum measured 176.058 %, Minimum measured 96.502 %) was > 50 µM.
With O=C(NCCCn1ccnc1)[C@H](Nc1ccc2c(c1)CNC2)c1cc(Cl)cc(C2CC2)c1 the EC50 (Zika virus; Zika virus, Vero C1008) was > 50 µM, the EC90 (Zika virus; Zika virus, Vero C1008, Maximum measured 4.008 %, Minimum measured -17.269 %) was > 50 µM and the EC50 (dengue virus type 2; Dengue virus, Vero C1008) was > 50 µM. For the same molecule, the EC90 (dengue virus type 2; Dengue virus, Vero C1008, Baseline response 0 %, Hill slope 0.691, Maximum measured 120.843 %, Maximum response 100 %, Minimum measured 86.475 %, R squared 0.179) was > 50 µM.
With O=C(Nc1ccc2c(c1)CNC2)c1cc(Cl)cc2cn[nH]c12 the EC50 (Zika virus; Zika virus, Vero C1008) was 3.01 µM, the EC90 (Zika virus; Zika virus, Vero C1008, Baseline response 0 %, EC90 CI (lower) 2.341 uM, EC90 CI (upper) 14.506 uM, Hill slope 3.321, Maximum measured 138.559 %, Maximum response 100 %, Minimum measured 2.928 %, R squared 0.845) was 5.83 µM and the EC50 (dengue virus type 2; Dengue virus, Vero C1008) was > 50 µM. The EC90 (dengue virus type 2; Dengue virus, Vero C1008, Maximum measured 130.797 %, Minimum measured 96.2 %) was > 50 µM.
With O=C(Nc1ccc2c(c1)CNC2)c1cc(F)cc(-c2c[nH]c(=O)c(F)c2)c1 the EC50 (Zika virus; Zika virus, Vero C1008) was > 50 µM, the EC90 (Zika virus; Zika virus, Vero C1008, Maximum measured 1.475 %, Minimum measured -1.93 %) was > 50 µM and the EC50 (dengue virus type 2; Dengue virus, Vero C1008) was > 25 µM. For the same molecule, the EC90 (dengue virus type 2; Dengue virus, Vero C1008, Baseline response 0 %, Hill slope 1.228, Maximum measured 158.309 %, Maximum response 100 %, Minimum measured 64.759 %, R squared 0.303) was > 25 µM.
